According to patent US20150343060A1, “TREATMENT OF CIRCULATING TUMOR CELLS USING AN EXTRACORPOREAL DEVICE” (priority 2014, published 2015):

Test system: A431 cells
Test: Probe incubation, irradiation at 24 J/cm^2 and NucleoCounter NC-3000 cell vitality assay after about 24 hours
Format: cell-based, human
Conditions: for Cell Number / Cell Vitality: 24 J/cm^2, about 24 hours after irradiation, EGF probe 0.5 μM, panitumumab probe 0.1 μM
Method: A431 cells were plated and incubated with either probe for 5 minutes, 10 minutes or 20 minutes prior to washing and irradiation at 24 J/cm^2. […] After irradiation, the cells were cultured at 37° C., 5% CO2 for approximately 24 hours. The NucleoCounter® NC-3000™ cell vitality assay (Chemometec, Allerød, Denmark) was performed.

IRDye® 700DX-panitumumab
Cell Number (5 minutes probe incubation): 675,000 cells/mL
Cell Vitality (5 minutes probe incubation): 44.2%
Cell Number (10 minutes probe incubation): 323,000 cells/mL
Cell Vitality (10 minutes probe incubation): 34%
Cell Number (20 minutes probe incubation): 550,000 cells/mL
Cell Vitality (20 minutes probe incubation): 31%
effect of longer incubation time on cell death (20 minutes vs. 5 minutes incubation, 24 J/cm^2): increased the number of cells undergoing cell death
cell death averaged over the time periods (average over 5, 10 and 20 minutes incubation, 24 J/cm^2): about 60%
